According to patent US20250325491A1, “POLYVALENT MOLECULE BASED LIPID NANOPARTICLES FOR NUCLEIC ACID DELIVERY” (Bio-TRIP B.V., priority 2022, published 2025):
Read-outs that look alike come from different tables or passages of the source. One block for each compound: values may come before it.

Assays:
[1] = Solubility of the polyvalent molecules in ethanol, iso-propanol and tri-caprylin
Protocol: The solubility can be checked by stirring about 20 mg of the polyvalent molecule in 1 gram of tricaprylin, ethanol or iso-propanol, and assessing whether all material spontaneously dissolves to create a clear/transparent solution (with a concentration of about 2 w/w %). The test can be done at about 20 degrees centigrade (room temperature) or at about 37 degrees centigrade.
Spontaneous dissolution upon stirring at room temperature giving a clear solution is a mark for solubility.

[2] = Dynamic light scattering (DLS) of nanoparticles; assay type: physicochemical; details: siRNA-aNPs containing the polyvalent material (Table S3); SD over individual repeats
Protocol: The hydrodynamic diameter of the formulated particles was determined by a number-weighted mean diameter provided by dynamic light scattering (DLS) using a Zetasizer Nano ZS in combination with a Malvern Zetasizer NanoSampler (Malvern Instruments, Worcestshire, UK). The size dispersity was measured as the poly dispersity index (PDI). For the DLS measurements, 100 μl of the formulated nanoparticle was diluted into 700 μl of PBS (137 mM NaCl, 2.7 mM KCl, 10 mM Na2HPO4 and 1.8 mM KH2PO4) and equilibrated at room temperature before the analysis. Each sample was measured 5 times, 10 runs of each 10 seconds, at wavelength 633 nm, without fixing the attenuator and measurement position.

[3] = Cryo-TEM of nanoparticles; assay type: physicochemical
Protocol: Size and shape of the nanoparticles was also assessed by cryo-transmission electron microscopy (cryo-TEM). The surface of 200-mesh lacey carbon supported copper grids (Electron Microscopy Sciences) was plasma charged for 40 seconds using a carbon coater (Cressington 208). Subsequently, 3 μl of nanoparticle sample (˜1 mg protein/ml) was pipetted on a grid and vitrified into a thin film by plunge vitrification in liquid ethane. This step was performed by using an automated robot (FEI Vitrobot Mark IV). Cryo-TEM imaging was acquired on the cryo-transmission electron microscope TITAN (Thermo Fisher), equipped with a field emission gun (FEG), a post-column Gatan imaging filter (model 2002) and a post-GIF 2 k×2 k Gatan CCD camera (model 794). The imaging was performed at 300 kV acceleration voltage in bright-field TEM mode with zero-loss energy filtering at 24,000× magnification (dose rate of 11.8 e−/Å2·s), and 1s acquisition time. Pictures and results are reported in Table S6, FIG. 7, FIG. 8, FIG. 9 (A), FIG. 15.

RAW 264.7 cell line = assay: MTS cytotoxicity assay; assay type: cell-based; details: RAW 264.7 cell line exposed to siRNA-aNPs with increasing amounts of the polyvalent molecule (FIG. 10)
Protocol: MTS assays were carried out on multiple apolipoprotein nanoparticles (aNPs) of the invention. These assays were executed in line with protocols that are known in the art.

[4] = Stability of nanoparticle formulations (phase separation on dialysis or storage); assay type: physicochemical; parameters: key to phase separation of siRNA-aNPs (Table S4): *: Indicates phase separation after two days of storage in the refrigerator at 4° C; key to phase separation of siRNA-aNPs (footnote mark, Table S5): *: Indicates phase separation after two days storage in the fridge at 4° C.; **: Indicates phase separation after overnight dialysis; details: siRNA-aNPs containing the polyvalent material; for phase separation of siRNA-aNPs (footnote mark, Table S5): overnight dialysis or storage at 4° C; for phase separation of siRNA-aNPs (Table S4): storage in the refrigerator at 4° C
[5] = 20 mg material per gram of solvent, spontaneous dissolution upon stirring giving a clear solution

DLS Hydrodynamic diameter (number mean) [2]: 55 ± 4 nm | DLS PDI [2]: 0.10 ± 0.01
SMILES: CCCCCCCCCCC(O)CN(CCCN(CCCCN(CCCN(CC(O)CCCCCCCCCC)CC(O)CCCCCCCCCC)CCCN(CC(O)CCCCCCCCCC)CC(O)CCCCCCCCCC)CCCN(CC(O)CCCCCCCCCC)CC(O)CCCCCCCCCC)CC(O)CCCCCCCCCC (mixture of isomers) [Example G2, G1-EPX-nC10-8]
solubility in ethanol, iso-propanol and tri-caprylin [1, 5]: soluble in all three solvents at room temperature

SMILES: CCCCCCCCC(O)CN(CCCN(CC(O)CCCCCCCC)CC(O)CCCCCCCC)CCCN(CC(O)CCCCCCCC)CC(O)CCCCCCCC (mixture of isomers) [Example G7, Bis(3-aminopropyl)amine-EPX-C8-5]
solubility in ethanol, iso-propanol and tri-caprylin [1, 5]: soluble in all three solvents at room temperature | DLS Hydrodynamic diameter (number mean) [2]: 54 ± 1 nm | DLS PDI [2]: 0.2 ± 0.06

SMILES: CCCCCCCCC(O)CN(CCN(CC(O)CCCCCCCC)CC(O)CCCCCCCC)CCN(CC(O)CCCCCCCC)CC(O)CCCCCCCC (mixture of isomers) [Example G8, Bis(2-amino-ethyl)amine-EPX-C8-5]
solubility in ethanol, iso-propanol and tri-caprylin [1, 5]: soluble in all three solvents at room temperature | DLS Hydrodynamic diameter (number mean) [2]: 84 ± 45 nm | DLS PDI [2]: 0.2 ± 0.05

SMILES: CCCCCCCCC(O)CN(CCCN(C)CCCN(CC(O)CCCCCCCC)CC(O)CCCCCCCC)CC(O)CCCCCCCC (mixture of isomers) [Example G9, Bis(3-aminopropyl)methylamine-EPX-C8-4]
DLS Hydrodynamic diameter (number mean) [2]: 73 ± 10 nm | DLS PDI [2]: 0.18 ± 0.08

SMILES: CCCCCCCCCCCCCCOC(=O)CCN(CCCN(CCCCN(CCCN(CCC(=O)OCCCCCCCCCCCCCC)CCC(=O)OCCCCCCCCCCCCCC)CCCN(CCC(=O)OCCCCCCCCCCCCCC)CCC(=O)OCCCCCCCCCCCCCC)CCCN(CCC(=O)OCCCCCCCCCCCCCC)CCC(=O)OCCCCCCCCCCCCCC)CCC(=O)OCCCCCCCCCCCCCC [Example A3, G1-ACR-nC14-8]
DLS Hydrodynamic diameter (number mean) [2]: 55 ± 0.7 nm | DLS PDI [2]: 0.14 ± 0.01

SMILES: CC(C)CCCCCCCOC(=O)CCN(CCCN(CCCCN(CCCN(CCC(=O)OCCCCCCCC(C)C)CCC(=O)OCCCCCCCC(C)C)CCCN(CCC(=O)OCCCCCCCC(C)C)CCC(=O)OCCCCCCCC(C)C)CCCN(CCC(=O)OCCCCCCCC(C)C)CCC(=O)OCCCCCCCC(C)C)CCC(=O)OCCCCCCCC(C)C [Example A6, G1-ACR-isoC10-8]
DLS Hydrodynamic diameter (number mean) [2]: 48 ± 1 nm | DLS PDI [2]: 0.14 ± 0.02 | diameter of siRNA-aNPs visible in cryo-TEM and immuno-gold staining TEM images ([3]; siRNA-aNPs containing A6 (FIG. 9)): about 50 nm | Cryo-TEM Diameter ([3]; siRNA-aNPs containing the polyvalent material, SD over n individual particles): 53 ± 11 nm | Cryo-TEM PDI ([3]; siRNA-aNPs containing the polyvalent material, n individual particles): 0.02 | cytotoxicity (MTS assay) (RAW 264.7 cell line): do not exercise cytotoxicity

SMILES: CCCCCCCCOC(=O)CCN(CCCN(CCC(=O)OCCCCCCCC)CCC(=O)OCCCCCCCC)CCCN(CCC(=O)OCCCCCCCC)CCC(=O)OCCCCCCCC [Example A9, Bis(3-Aminopropyl)Amine-ACR-C8-5]
solubility in ethanol, iso-propanol and tri-caprylin [1, 5]: soluble in all three solvents at room temperature

SMILES: CCCCCCCCOC(=O)CCN(CCC(=O)OCCCCCCCC)CCN(CCC(=O)OCCCCCCCC)CCN(CCC(=O)OCCCCCCCC)CCC(=O)OCCCCCCCC [Example A10, Bis(2-aminoethyl)amine-ACR-C8-5]
solubility in ethanol, iso-propanol and tri-caprylin [1]: soluble in all three solvents at room temperature

SMILES: CCCCCCCCOC(=O)CCN(CCCN(C)CCCN(CCC(=O)OCCCCCCCC)CCC(=O)OCCCCCCCC)CCC(=O)OCCCCCCCC [Example A11, Bis-(3-aminopropyl)methylamine-ACR-C8-4]
solubility in ethanol, iso-propanol and tri-caprylin [1, 5]: soluble in all three solvents at room temperature | DLS Hydrodynamic diameter (number mean) [2]: 136 ± 45 nm | DLS PDI [2]: 0.14 ± 0.04

DLS Hydrodynamic diameter (number mean) [2]: 67 nm | DLS PDI [2]: 0.09 | phase separation of siRNA-aNPs (footnote mark, Table S5) [4]: B2 * | phase separation of siRNA-aNPs (Table S4) [4]: B2 *
SMILES: CCCCCCCCCCCCCCOC(=O)CCN(CCCN(CCCCN(CCCN(CCC(=O)OCCCCCCCCCCCCCC)C(C)=O)CCCN(CCC(=O)OCCCCCCCCCCCCCC)C(C)=O)CCCN(CCC(=O)OCCCCCCCCCCCCCC)C(C)=O)C(C)=O [Example B2, G1-ACR-nC14-4/Ac-4]
solubility in ethanol, iso-propanol and tri-caprylin [1, 5]: soluble in all three solvents at room temperature

SMILES: CCCCCCCCCCCCCCOC(=O)CCN(C)CCCN(CCCCN(CCCN(C)CCC(=O)OCCCCCCCCCCCCCC)CCCN(C)CCC(=O)OCCCCCCCCCCCCCC)CCCN(C)CCC(=O)OCCCCCCCCCCCCCC [Example H1, G1-ACR-nC14-4/CH3-4]
DLS Hydrodynamic diameter (number mean) [2]: 66 ± 7 nm | DLS PDI [2]: 0.45 ± 0.43 | phase separation of siRNA-aNPs (footnote mark, Table S5) [4]: H1 * | phase separation of siRNA-aNPs (Table S4) [4]: H1 *

SMILES: CCCCCCCCC=CCCCCCCCC(=O)NCCCCC(N)C(=O)NCCCN(CCCCN(CCCNC(=O)C(N)CCCCNC(=O)CCCCCCCC=CCCCCCCCC)CCCNC(=O)C(N)CCCCNC(=O)CCCCCCCC=CCCCCCCCC)CCCNC(=O)C(N)CCCCNC(=O)CCCCCCCC=CCCCCCCCC (centres unmarked) [Example J10, G1-Lysine-N^6-Oleate-4]
solubility in ethanol, iso-propanol and tri-caprylin [1, 5]: soluble in all three solvents at room temperature

SMILES: CCCCCCCCC=CCCCCCCCC(=O)NC(CCCNC(=N)N)C(=O)NCCCN(CCCCN(CCCNC(=O)C(CCCNC(=N)N)NC(=O)CCCCCCCC=CCCCCCCCC)CCCNC(=O)C(CCCNC(=N)N)NC(=O)CCCCCCCC=CCCCCCCCC)CCCNC(=O)C(CCCNC(=N)N)NC(=O)CCCCCCCC=CCCCCCCCC (centres unmarked) [Example J11, G1-Arginine-Oleate-4]
solubility in ethanol, iso-propanol and tri-caprylin [1, 5]: soluble in all three solvents at room temperature
